Broadly, the solubility is how much of the substance goes into solution per volume. A high value points to a readily soluble substance.

≈ marks a conversion by molar mass, not a printed value.

In patent publication US7416722B2, “Concentrated, aqueous solutions of p-methoxybenzoic acid for use in cosmetic and dermatologic formulations” (Dr. Straetmans GmbH, priority 2005, dated 2008) one finds solubility data, which are given here for one compound.

The nature of the series: solubility of p-methoxybenzoic acid in water. The format is physicochemical. An excerpt: p-Methoxybenzoic acid can be obtained under the trade name of DERMOSOFT® 688 from Dr. Straetmans GmbH in a cosmetical grade. The solubility of p-methoxybenzoic acid in water is approximately […]. For use in a cosmetic formulation the product is usually brought into solution with sodium hydroxide or potassium hydroxide in a small amount of water at warm temperatures and worked into an aqueous phase. To evolve the spectrum of effects of p-methoxybenzoic acid completely, afterwards the formula should be re-acidified to a pH-value of 5.5. […] This may show, that the initial homogenous solutions are merely meta-stable systems.

Take `COc1ccc(C(=O)O)cc1` [p-methoxybenzoic acid]: the solubility was ~5000 µg/mL (≈ 32.9 mM).
